{"source": "paper PMC11985408", "about": "“Tsrp1 Is a Novel Cyclic Diguanosine Monophosphate Effector that Plays a Role in the Organic-Solvent Tolerance of Rhodococcus ruber” (Journal of Microbiology and Biotechnology, 2025)", "molecular_target": "Tsrp1", "experiment": "localized surface plasmon resonance, Tsrp1 immobilised on NTA chip, one-to-one model", "assay_type": "binding, Rhodococcus ruber", "conditions": "HEPES-buffered saline pH 7.4; c-di-GMP 62.5-500 μM; unit printed as mM in b36 but μM in abstract; read-out: dissociation constant"}
{"smiles": "Nc1nc2c(ncn2[C@@H]2O[C@@H]3COP(=O)(O)O[C@H]4[C@@H](O)[C@H](n5cnc6c(=O)[nH]c(N)nc65)O[C@@H]4COP(=O)(O)O[C@H]3[C@H]2O)c(=O)[nH]1", "note": "[c-di-GMP]", "values": [{"measurement": "Kd", "result": "0.064 ± 0.00684", "unit": "mM"}]}
